Results from patent US20110190503A1, “Thiazolopyridin-2-yloxy-phenyl and thiazolopyrazin-2-yloxy-phenyl amines as modulators of leukotriene A4 hydrolase” (Janssen Pharmaceutical NV, priority 2008, published 2011).
pIC50: −log10 of the molar value. Where a name gives a salt, the structure may show the parent alone.

Molecular target: T1, recombinant human LTA4 hydrolase (rhLTA4H) (Homo sapiens, UniProt P09960)
T1 construct: made in house; host or cells: Spodoptera frugiperda (Sf-9) cells, recombinant baculovirus (pFastBac1)
T1 sequence (P09960 1-611): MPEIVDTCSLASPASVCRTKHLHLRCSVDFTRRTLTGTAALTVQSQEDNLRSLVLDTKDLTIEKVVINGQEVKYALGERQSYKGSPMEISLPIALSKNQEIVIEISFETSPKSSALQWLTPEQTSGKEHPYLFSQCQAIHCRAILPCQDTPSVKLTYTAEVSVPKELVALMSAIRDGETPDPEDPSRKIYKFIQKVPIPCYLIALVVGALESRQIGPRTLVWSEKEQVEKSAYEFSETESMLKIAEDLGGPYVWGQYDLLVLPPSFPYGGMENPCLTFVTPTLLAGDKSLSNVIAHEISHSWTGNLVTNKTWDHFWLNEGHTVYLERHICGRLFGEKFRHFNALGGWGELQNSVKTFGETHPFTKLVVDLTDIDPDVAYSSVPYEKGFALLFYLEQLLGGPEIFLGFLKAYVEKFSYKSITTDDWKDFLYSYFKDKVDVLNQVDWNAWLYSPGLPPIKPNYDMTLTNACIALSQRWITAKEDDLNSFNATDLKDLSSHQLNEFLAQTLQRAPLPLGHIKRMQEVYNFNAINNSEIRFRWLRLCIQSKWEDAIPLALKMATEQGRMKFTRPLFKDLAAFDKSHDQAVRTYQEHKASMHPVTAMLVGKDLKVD
Experiment: Recombinant human LTA4 hydrolase assay for LTA4 hydrolase inhibitor activity
Assay type: biochemical
Conditions: rhLTA4H, LTA4 substrate, LTB4 by immunoassay; single determination or average; read-out: IC50
Description: Assay 1: Recombinant Human LTA4 Hydrolase Assay for LTA4 Hydrolase Inhibitor Activity
Compounds of the present invention were tested for LTA4 hydrolase inhibitor activity against recombinant human LTA4 hydrolase (rhLTA4H). Vectors were prepared and used to express rhLTA4H essentially as follows: LTA4 hydrolase encoding DNA was amplified by polymerase chain reaction (PCR) using a human placental cDNA library as a template. […] The amplified 1.9 kb DNA fragment encoding LTA4 hydrolase was isolated and cloned into the pFastBac1 vector (Invitrogen). Recombinant baculovirus was generated as described by the manufacturer, and used to infect Spodoptera frugiperda (Sf-9) cells. […] The purified enzyme solution was adjusted to contain 0.29 mg/mL LTA4 hydrolase, 50 mM Tris (pH 8.0), 150 mM NaCl, 5 mM dithiothreitol, 50% glycerol, and EDTA-free Complete protease inhibitor cocktail (Roche).
LTA4 substrate was prepared from the methyl ester of LTA4 (Cayman Chemical) by treatment with 67 equiv of NaOH under nitrogen at rt for 40 min. The LTA4 substrate in its free acid form was kept frozen at −80° C. until needed. Each compound was diluted to different concentrations in assay buffer (from Assay Designs) containing 10% DMSO. A 25-μL aliquot of each compound dilution was incubated for 10 min at rt with an equal volume of assay buffer containing 10 ng of recombinant human LTA4H. The solution was then adjusted to 200 μL with assay buffer. […] Each reaction was carried out at rt for 30 min. The reaction was stopped by diluting 10 μL of the reaction mixture with 200 μL of assay buffer. LTB4 was quantified in the diluted sample by a commercially available enzyme-linked immunoassay (Cayman Chemical Co.), as recommended by the manufacturer. Positive controls, under essentially identical conditions but without addition of an inhibitor compound, and negative controls, containing all assay components except enzyme, were routinely run in each experiment. IC50 values were determined by nonlinear regression of the activity data at different compound concentrations using Graphpad Prism 4.0, one site binding competition.
The values presented here are the result of a single determination or an average of two or more determinations, as indicated in parentheses following each value. For compounds tested three or more times, the average value is followed by the standard deviation

Structure (SMILES) | pIC50
NC(=O)N[C@@H]1C[C@H]2CC[C@@H](C1)N2Cc1ccc(Oc2nc3nccnc3s2)cc1 [Example 199, meso-1-{(3-exo)-8-[4-([1,3]Thiazolo[4,5-b]pyrazin-2-yloxy)benzyl]-8-azabicyclo[3.2.1]oct-3-yl}urea] | 7.38
FC(F)(F)C1CCN(CCOc2ccc(Oc3nc4cnccc4s3)cc2)CC1 [Example 164, 2-{[4-({2-[4-(Trifluoromethyl)piperidin-1-yl]ethyl}oxy)phenyl]oxy}[1,3]thiazolo[4,5-c]pyridine] | 7.35
NCCCN(Cc1ccc(Oc2nc3ccncc3s2)cc1)CC1CC1 [Example 204, N-(Cyclopropylmethyl)-N-[4-([1,3]thiazolo[5,4-c]pyridin-2-yloxy)benzyl]propane-1,3-diamine hydrochloride] | 6.24
c1cc2sc(Oc3ccc(CN4CCCCC4)cc3)nc2cn1 [Example 133, 2-[4-(Piperidin-1-ylmethyl)phenoxy][1,3]thiazolo[4,5-c]pyridine] | 5.73
OC1(c2ccc(Cl)cc2)CCN(CCOc2ccc(Oc3nc4nccnc4s3)cc2)CC1 [Example 25, 4-(4-Chlorophenyl)-1-{2-[4-([1,3]thiazolo[4,5-b]pyrazin-2-yloxy)phenoxy]ethyl}piperidin-4-ol] | 6.80
Cc1cnc2nc(Oc3ccc(CN4CCC(NC(=O)c5cccs5)CC4)cc3)sc2c1 [Example 220, N-(1-{4-[(6-Methyl[1,3]thiazolo[4,5-b]pyridin-2-yl)oxy]benzyl}piperidin-4-yl)thiophene-2-carboxamide] | 6.96
CN1CCN(Cc2ccc(Oc3nc4cnccc4s3)cc2)CC1=O [Example 224, 1-Methyl-4-[4-([1,3]thiazolo[4,5-c]pyridin-2-yloxy)benzyl]piperazin-2-one] | 5.31
O=C(c1ccc(Cl)cc1)C1CCN(CCc2ccc(Oc3nc4cnccc4s3)cc2)CC1 [Example 195, (4-Chlorophenyl)(1-{2-[4-([1,3]thiazolo[4,5-c]pyridin-2-yloxy)phenyl]ethyl}piperidin-4-yl)methanone] | 5.86
Cc1ccnc2nc(Oc3ccc(OCCN4[C@@H]5CC[C@H]4C[C@@H](NC(=O)CN)C5)cc3)sc12 [Example 166, meso-N-{(3-endo)-8-[2-({4-[(7-Methyl[1,3]thiazolo[4,5-b]pyridin-2-yl)oxy]phenyl}oxy)ethyl]-8-azabicyclo[3.2.1]oct-3-yl}glycinamide hydrochloride] | 6.94
Clc1ccc(SC2CCN(CCOc3ccc(Oc4nc5ncccc5s4)cc3)CC2)cc1 [Example 136, 2-[4-(2-{4-[(4-Chlorophenyl)sulfanyl]piperidin-1-yl}ethoxy)phenoxy][1,3]thiazolo[4,5-b]pyridine] | 6.37
OCCCN(CCOc1ccc(Oc2nc3ccncc3s2)cc1)CC1CC1 [Example 156, 3-[(Cyclopropylmethyl){2-[4-([1,3]thiazolo[5,4-c]pyridin-2-yloxy)phenoxy]ethyl}amino]propan-1-ol] | 6.31
CC(=O)N1C[C@@H]2C[C@H]1CN2Cc1ccc(Oc2nc3nc(C)ccc3s2)cc1 [Example 126, 2-(4-{[(1S,4S)-5-Acetyl-2,5-diazabicyclo[2.2.1]hept-2-yl]methyl}phenoxy)-5-methyl[1,3]thiazolo[4,5-b]pyridine] | 6.04
CN1CCCN(CCOc2ccc(Oc3nc4cccnc4s3)cc2)CC1 [Example 152, 2-{4-[2-(4-Methyl-1,4-diazepan-1-yl)ethoxy]phenoxy}[1,3]thiazolo[5,4-b]pyridine] | 6.30
Clc1cnc2nc(Oc3ccc(CN4CCSCC4)cc3)sc2c1 [Example 189, 6-Chloro-2-{[4-(thiomorpholin-4-ylmethyl)phenyl]oxy}[1,3]thiazolo[4,5-b]pyridine] | 6.51
NC(=O)N1C[C@@H]2C[C@H]1CN2CCc1ccc(Oc2nc3cccnc3s2)cc1 [Example 78, (1S,4S)-5-{2-[4-([1,3]Thiazolo[5,4-b]pyridin-2-yloxy)phenyl]ethyl}-2,5-diazabicyclo[2.2.1]heptane-2-carboxamide] | 6.80
CC(=O)N1C[C@@H]2C[C@H]1CN2Cc1ccc(Oc2nc3c(C)ccnc3s2)cc1 [Example 281, 2-(4-{[(1S,4S)-5-Acetyl-2,5-diazabicyclo[2.2.1]hept-2-yl]methyl}phenoxy)-7-methyl[1,3]thiazolo[5,4-b]pyridine] | < 5.00
NC(=O)N1C[C@@H]2C[C@H]1CN2CCOc1ccc(Oc2nc3cccnc3s2)cc1 [Example 21, (1S,4S)-5-{2-[4-([1,3]Thiazolo[5,4-b]pyridin-2-yloxy)phenoxy]ethyl}-2,5-diazabicyclo[2.2.1]heptane-2-carboxamide] | 6.80
NC(=O)C1CCN(CCc2ccc(Oc3nc4cccnc4s3)cc2)CC1 [Example 67, 1-{2-[4-([1,3]Thiazolo[5,4-b]pyridin-2-yloxy)phenyl]ethyl}piperidine-4-carboxamide] | 6.72
O=C1CCCN1C1CCN(CCOc2ccc(Oc3nc4ccncc4s3)cc2)CC1 [Example 144, 1-(1-{2-[4-([1,3]Thiazolo[5,4-c]pyridin-2-yloxy)phenoxy]ethyl}piperidin-4-yl)pyrrolidin-2-one] | 6.46
CC(=O)N1CC2CN(CCc3ccc(Oc4nc5cccnc5s4)cc3)CC2C1 (stereo not drawn) [Example 69, 2-{4-[2-(5-Acetylhexahydropyrrolo[3,4-c]pyrrol-2(1H)-yl)ethyl]phenoxy}[1,3]thiazolo[5,4-b]pyridine] | 6.92
O=C1CCCN1C1CCN(CCOc2ccc(Oc3nc4cccnc4s3)cc2)CC1 [Example 43, 1-(1-{2-[4-([1,3]Thiazolo[5,4-b]pyridin-2-yloxy)phenoxy]ethyl}piperidin-4-yl)pyrrolidin-2-one] | 6.85
CC(=O)N1[C@@H]2CC[C@H]1C[C@H](NCCc1ccc(Oc3nc4ncccc4s3)cc1)C2 [Example 214, meso-(3-exo)-8-Acetyl-N-{2-[4-([1,3]thiazolo[4,5-b]pyridin-2-yloxy)phenyl]ethyl}-8-azabicyclo[3.2.1]octan-3-amine] | 8.52
c1ccc(CC2CCN(CCc3ccc(Oc4nc5ncccc5s4)cc3)CC2)cc1 [Example 63, 2-{4-[2-(4-Benzylpiperidin-1-yl)ethyl]phenoxy}[1,3]thiazolo[4,5-b]pyridine] | 7.80
CS(=O)(=O)N1C[C@H]2C[C@@H]1CN2CCOc1ccc(Oc2nc3ccncc3s2)cc1 [Example 151, 2-(4-{2-[(1R,4R)-5-(Methylsulfonyl)-2,5-diazabicyclo[2.2.1]hept-2-yl]ethoxy}phenoxy)[1,3]thiazolo[5,4-c]pyridine] | 6.44
O=C(NC1CCN(CCc2ccc(Oc3nc4ccncc4s3)cc2)CC1)C1CC1 [Example 192, N-(1-{2-[4-([1,3]Thiazolo[5,4-c]pyridin-2-yloxy)phenyl]ethyl}piperidin-4-yl)cyclopropanecarboxamide] | 6.29
NC(=O)N1[C@@H]2CC[C@H]1CN(Cc1ccc(Oc3nc4cnccc4s3)cc1)C2 [Example 202, meso-3-[4-([1,3]Thiazolo[4,5-c]pyridin-2-yloxy)benzyl]-3,8-diazabicyclo[3.2.1]octane-8-carboxamide] | ~5.05
Cc1ccnc2nc(Oc3ccc(OCCN4CCN(C(=O)c5ccncc5)CC4)cc3)sc12 [Example 143, 7-Methyl-2-(4-{2-[4-(pyridin-4-ylcarbonyl)piperazin-1-yl]ethoxy}phenoxy)[1,3]thiazolo[4,5-b]pyridine] | 6.71
